Experimental data reported in paper PMC8355704, “Designing Modular Cell-free Systems for Tunable Biotransformation of L-phenylalanine to Aromatic Compounds” (Frontiers in Bioengineering and Biotechnology, 2021).

Assays:
Assay type in all cases: biochemical
[1] = molecular target: T1, phenylalanine ammonia lyase 2 (PAL2) (Arabidopsis thaliana, UniProt P45724); experiment: GC-MS detection of product cinnamic acid in cell-free expression mixture; conditions: unpurified E. coli CFPS lysate; control without plasmid
T1 construct: codon-optimised gene in pET28a (NdeI/SalI), made by E. coli cell-free protein synthesis, not purified
T1 sequence (P45724 whole entry): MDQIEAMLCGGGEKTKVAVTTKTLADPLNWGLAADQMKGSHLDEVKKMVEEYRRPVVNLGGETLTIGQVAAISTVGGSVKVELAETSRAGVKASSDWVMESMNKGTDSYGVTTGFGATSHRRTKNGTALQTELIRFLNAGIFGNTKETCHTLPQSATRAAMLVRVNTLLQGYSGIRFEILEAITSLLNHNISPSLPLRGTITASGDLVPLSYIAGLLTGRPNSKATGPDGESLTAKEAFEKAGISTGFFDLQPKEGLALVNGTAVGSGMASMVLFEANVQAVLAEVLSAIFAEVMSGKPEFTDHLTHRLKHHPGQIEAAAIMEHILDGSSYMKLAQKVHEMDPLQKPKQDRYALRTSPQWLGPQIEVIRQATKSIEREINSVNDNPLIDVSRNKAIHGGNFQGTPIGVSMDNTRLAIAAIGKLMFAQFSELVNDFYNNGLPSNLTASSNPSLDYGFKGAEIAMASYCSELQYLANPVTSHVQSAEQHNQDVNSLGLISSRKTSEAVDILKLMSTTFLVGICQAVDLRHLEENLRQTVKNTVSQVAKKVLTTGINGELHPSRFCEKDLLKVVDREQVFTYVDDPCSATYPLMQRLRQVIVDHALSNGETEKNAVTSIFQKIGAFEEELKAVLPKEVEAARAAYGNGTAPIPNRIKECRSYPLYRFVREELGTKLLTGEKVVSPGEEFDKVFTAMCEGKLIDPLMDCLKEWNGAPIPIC

[2] = molecular target: T2, phenylacrylic acid decarboxylase (PAD, containing two enzymes Fdc1 and Pad1) (Aspergillus niger, UniProt A2QHE5); experiment: GC-MS detection of product styrene in cell-free expression mixture; conditions: unpurified E. coli CFPS lysate; control without plasmid; Fdc1 coexpressed with Pad1
T2 construct: codon-optimised Fdc1 and Pad1 genes in pET28a, coexpressed by E. coli cell-free protein synthesis, not purified; with Flavin prenyltransferase PAD1, mitochondrial

[3] = molecular target: T3, styrene monooxygenase (SMO, consisting of two subunit enzymes StyA and StyB) (Pseudomonas sp., UniProt O50214); experiment: GC-MS detection of product styrene oxide in cell-free expression mixture; conditions: unpurified E. coli CFPS lysate; control without plasmid; StyA coexpressed with StyB; NADH from lysate
T3 construct: pET28a-StyA and pET28a-StyB coexpressed by E. coli cell-free protein synthesis, two separate chains, not purified; with Styrene monooxygenase StyB (NADH-flavin oxidoreductase component)
T3 sequence (O50214 1-415): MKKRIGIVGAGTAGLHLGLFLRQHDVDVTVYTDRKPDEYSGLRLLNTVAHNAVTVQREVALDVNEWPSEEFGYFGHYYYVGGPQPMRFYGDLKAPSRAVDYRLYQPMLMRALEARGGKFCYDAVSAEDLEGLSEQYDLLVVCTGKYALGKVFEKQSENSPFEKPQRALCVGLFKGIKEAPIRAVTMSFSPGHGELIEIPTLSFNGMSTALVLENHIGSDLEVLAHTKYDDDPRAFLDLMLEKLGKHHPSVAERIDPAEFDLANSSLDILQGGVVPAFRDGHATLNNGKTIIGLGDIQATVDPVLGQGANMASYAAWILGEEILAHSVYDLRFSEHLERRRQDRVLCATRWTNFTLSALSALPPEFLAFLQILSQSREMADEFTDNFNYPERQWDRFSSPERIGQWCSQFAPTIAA

[4] = molecular target: T4, styrene oxide isomerase (StyC, SOI) (Pseudomonas sp. VLB120, UniProt O50216); experiment: GC-MS detection of product phenylacetaldehyde in cell-free expression mixture; conditions: unpurified E. coli CFPS lysate; control without plasmid
T4 construct: gene stdC; codon-optimised gene in pET28a, made by E. coli cell-free protein synthesis, not purified; membrane protein
T4 sequence (O50216 1-169): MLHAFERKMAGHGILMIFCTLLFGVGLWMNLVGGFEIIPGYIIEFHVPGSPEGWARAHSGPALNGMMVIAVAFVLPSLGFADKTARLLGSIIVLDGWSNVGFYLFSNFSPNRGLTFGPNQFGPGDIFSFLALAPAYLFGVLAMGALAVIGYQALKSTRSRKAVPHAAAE

## N[C@@H](Cc1ccccc1)C(=O)O [compound 1, L-phenylalanine]
[1]
  GC-MS detection of product cinnamic acid in cell-free expression mixture: each target compound was detected by GC-MS

## O=C(O)/C=C/c1ccccc1 [compound 2, cinnamic acid]
[2]
  GC-MS detection of product styrene in cell-free expression mixture: the conversion of cinnamic acid to styrene requires two enzymes Fdc1 and Pad1

## C=Cc1ccccc1 [compound 3, styrene]
[3]
  GC-MS detection of product styrene oxide in cell-free expression mixture: two subunit enzymes StyA and StyB to oxidize styrene to styrene oxide

## c1ccc(C2CO2)cc1 (stereo not shown) [compound 4, styrene oxide]
[4]
  GC-MS detection of product phenylacetaldehyde in cell-free expression mixture: all cell-free expressed enzymes were active to convert their substrates to the corresponding products
